Blank lines part the entries; values can stand above or below the compound they belong to.
Assays:
NCI-N87 tumor cells = assay: N87 tumor in vivo study; set-up: species or system Female BALB/cA-nude mice; conditions: for Average Tumor Volume Day 21 / Inhibition rate / T/C: Day 21; for Average Tumor Volume Day 0: Day 0 (baseline)
Description: Female BALB/cA-nude mice were implanted with NCI-N87 tumor cells. Tumor measurements were recorded twice a week. Randomize animals to groups (Day 0) when tumors reached an average size of 60-150 mm^3. Group size was 6 mice. Test compound was administered p.o. once daily for 21 days. Tumor inhibition values were determined at Day 21.
Tumor volume (V) was calculated as follow: V=½×a×b, where a and b are the length and width of the tumor respectively. Relative tumor proliferation rate was calculated as follow: T/C (%)=(T−T0)/(C−C0)×100, where T and C are the tumor volume of test compound group and control group on Day 21, T0 and C0 are the tumor volume of test compound group and control group on Day 0.

[1] = test system: BT474 (EGFR overexpression) cells; assay: Cell proliferation assay (MTS), BT474; assay type: cell-based; conditions: Homo sapiens, BT-474, 168 h, 7 d incubation
Description: (§1) Cell Proliferation Asssay
(§2) Materials and Preparation of Reagents
(§3) MTS testing kit was purchased from Promega. […] Dimethyl sulfoxide (DMSO) was purchased from Sigma.
(§4) Inhibition Activity of Cell Proliferation
(§5) In this assay, inhibition of EGFR and ErbB2 was detected by the inhibition of BT474 and N87 cells proliferation. BT474 cells were cultured in culture flasks to 40-80% confluence in DMEM plus 10% fetal bovine serum. […] Cells were collected and plated onto 96-well plates at desired cell density (BT474: 1000 cells/well; N87: 1000 cells/well). BT474 plates were incubated 48 h at 37° C., with 5% CO2 to adhere. N87 plates were incubated overnight at 37° C., with 5% CO2 to adhere. […] Place BT474 plates at 37° C., with 5% CO2 for 7d. Place N87 plates at 37° C., with 5% CO2 for 72 h. After removing the medium, 20 μl MTS/100 μl medium mixture solution were added to each well and incubate the plates for exactly 2 hours. Measure absorbance at 490 nm and 650 nm (reference wavelength). IC50 was calculated using GraphPad Prism 5.0.

[2] = test system: N87 (EGFR and ErbB2 overexpression) cells; assay: Cell proliferation assay (MTS), N87; assay type: cell-based; conditions: 72 h incubation
Description: as §1, §2, §3, §4, §5

[3] = 20 mg/kg p.o. once daily for 21 days
[4] = 2 mg/kg p.o. once daily for 21 days
[5] = 5 mg/kg p.o. once daily for 21 days
[6] = 10 mg/kg p.o. once daily for 21 days
[7] = 320 mg/kg p.o. once daily for 21 days

Structure (SMILES): CN(C)C/C=C/C(=O)Nc1cc2c(Nc3ccc(F)c(Cl)c3)ncnc2cc1O[C@H]1CCOC1 [Afatinib, reference compound]
Average Tumor Volume Day 21 (NCI-N87 tumor cells; [3]): 72.9 ± 7.9 mm^3
Inhibition rate (NCI-N87 tumor cells; [3]): 138%
T/C (NCI-N87 tumor cells; [3]): −38%
Average Tumor Volume Day 0 (NCI-N87 tumor cells; 20 mg/kg p.o. once daily): 117.2 ± 8.3 mm^3

Structure (SMILES): COc1cc2ncnc(Nc3ccc(F)c(Cl)c3)c2cc1NC(=O)/C=C/CN1CCC1CO (centres unmarked) [Example 1, (E)-N-(4-(3-chloro-4-fluorophenylamino)-7-methoxyquinazolin-6-yl)-4-(2-(hydroxymethyl)azetidin-1-yl)but-2-enamide]
IC50 [1]: 2.3 nM
IC50 [2]: 5 nM

Structure (SMILES): COC[C@H]1CCN1C/C=C/C(=O)Nc1cc2c(Nc3ccc(F)c(Cl)c3)ncnc2cc1OC [Example 2, (R,E)-N-(4-(3-chloro-4-fluorophenylamino)-7-methoxyquinazolin-6-yl)-4-(2-(methoxymethyl)azetidin-1-yl)but-2-enamide]
IC50 [1]: 1.6 nM
Average Tumor Volume Day 21 (NCI-N87 tumor cells; [4]): 584.4 ± 71.3 mm^3
Inhibition rate (NCI-N87 tumor cells; [4]): 61%
T/C (NCI-N87 tumor cells; [4]): 39%
Average Tumor Volume Day 0 (NCI-N87 tumor cells; 2 mg/kg p.o. once daily): 113.3 ± 4.4 mm^3
Average Tumor Volume Day 21 (NCI-N87 tumor cells; [5]): 54.3 ± 3.8 mm^3
Inhibition rate (NCI-N87 tumor cells; [5]): 154%
T/C (NCI-N87 tumor cells; [5]): −54%
Average Tumor Volume Day 0 (NCI-N87 tumor cells; 5 mg/kg p.o. once daily): 117.6 ± 7.2 mm^3
IC50 [2]: 1.6 nM

Structure (SMILES): COC[C@@H]1CCN1C/C=C/C(=O)Nc1cc2c(Nc3ccc(F)c(Cl)c3)ncnc2cc1OC [Example 3, (S,E)-N-(4-(3-chloro-4-fluorophenylamino)-7-methoxyquinazolin-6-yl)-4-(2-(methoxymethyl)azetidin-1-yl)but-2-enamide]
IC50 [1]: 21.5 nM
IC50 [2]: 14.2 nM

Structure (SMILES): CCOc1cc2ncnc(Nc3ccc(F)c(Cl)c3)c2cc1NC(=O)/C=C/CN1CC[C@@H]1COC [Example 4, (R,E)-N-(4-(3-chloro-4-fluorophenylamino)-7-ethoxyquinazolin-6-yl)-4-(2-(methoxymethyl)azetidin-1-yl)but-2-enamide]
IC50 [1]: 2 nM
Average Tumor Volume Day 21 (NCI-N87 tumor cells; [4]): 436.6 ± 60.5 mm^3
Inhibition rate (NCI-N87 tumor cells; [4]): 73%
T/C (NCI-N87 tumor cells; [4]): 27%
Average Tumor Volume Day 0 (NCI-N87 tumor cells; 2 mg/kg p.o. once daily): 105.6 ± 9.9 mm^3
Average Tumor Volume Day 21 (NCI-N87 tumor cells; [5]): 49.7 ± 5.4 mm^3
Inhibition rate (NCI-N87 tumor cells; [5]): 154%
T/C (NCI-N87 tumor cells; [5]): −54%
Average Tumor Volume Day 0 (NCI-N87 tumor cells; 5 mg/kg p.o. once daily): 109.1 ± 10.1 mm^3

Structure (SMILES): COCCOc1cc2ncnc(Nc3ccc(F)c(Cl)c3)c2cc1NC(=O)/C=C/CN1CC[C@@H]1COC [Example 6, (R,E)-N-(4-(3-chloro-4-fluorophenylamino)-7-(2-methoxyethoxy)quinazolin-6-yl)-4-(2-(methoxymethyl)azetidin-1-yl)but-2-enamide]
IC50 [1]: 1.4 nM
Average Tumor Volume Day 21 (NCI-N87 tumor cells; [5]): 176.3 ± 24.2 mm^3
Inhibition rate (NCI-N87 tumor cells; [5]): 95%
T/C (NCI-N87 tumor cells; [5]): 5%
Average Tumor Volume Day 0 (NCI-N87 tumor cells; 5 mg/kg p.o. once daily): 116.9 ± 7.8 mm^3
Average Tumor Volume Day 21 (NCI-N87 tumor cells; [6]): 49.0 ± 3.9 mm^3
Inhibition rate (NCI-N87 tumor cells; [6]): 157%
T/C (NCI-N87 tumor cells; [6]): −57%
Average Tumor Volume Day 0 (NCI-N87 tumor cells; 10 mg/kg p.o. once daily): 114.8 ± 7.8 mm^3

Structure (SMILES): COCCOc1cc2ncnc(Nc3ccc(F)c(Cl)c3)c2cc1NC(=O)/C=C/CN1CC[C@H]1COC [Example 7, (S,E)-N-(4-(3-chloro-4-fluorophenylamino)-7-(2-methoxyethoxy)quinazolin-6-yl)-4-(2-(methoxymethyl)azetidin-1-yl)but-2-enamide]
IC50 [1]: 5.8 nM

Structure (SMILES): O=C(/C=C/CN1CCC1CO)Nc1cc2c(Nc3ccc(F)c(Cl)c3)ncnc2cc1OCC1CC1 (centres unmarked) [Example 8, (E)-N-(4-(3-chloro-4-fluorophenylamino)-7-(cyclopropylmethoxy)quinazolin-6-yl)-4-(2-(hydroxymethyl)azetidin-1-yl)but-2-enamide]
IC50 [1]: 9.5 nM
IC50 [2]: 11.8 nM

Structure (SMILES): COC[C@H]1CCN1C/C=C/C(=O)Nc1cc2c(Nc3ccc(F)c(Cl)c3)ncnc2cc1OCC1CC1 [Example 9, (R,E)-N-(4-(3-chloro-4-fluorophenylamino)-7-(cyclopropylmethoxy)quinazolin-6-yl)-4-(2-(methoxymethyl)azetidin-1-yl)but-2-enamide]
IC50 [1]: 6.6 nM
Average Tumor Volume Day 21 (NCI-N87 tumor cells; [5]): 349.3 ± 43.8 mm^3
Inhibition rate (NCI-N87 tumor cells; [5]): 81%
T/C (NCI-N87 tumor cells; [5]): 19%
Average Tumor Volume Day 0 (NCI-N87 tumor cells; 5 mg/kg p.o. once daily): 124.1 ± 8.5 mm^3
Average Tumor Volume Day 21 (NCI-N87 tumor cells; [6]): 60.3 ± 6.9 mm^3
Inhibition rate (NCI-N87 tumor cells; [6]): 150%
T/C (NCI-N87 tumor cells; [6]): −50%
Average Tumor Volume Day 0 (NCI-N87 tumor cells; 10 mg/kg p.o. once daily): 120.2 ± 13.0 mm^3

Structure (SMILES): CS(=O)(=O)CCNCc1ccc(-c2ccc3ncnc(Nc4ccc(OCc5cccc(F)c5)c(Cl)c4)c3c2)o1 [Lapatinib, reference compound]
Inhibition rate (NCI-N87 tumor cells; [7]): 87%
T/C (NCI-N87 tumor cells; [7]): 13%
Average Tumor Volume Day 0 (NCI-N87 tumor cells): 124.4 ± 7.3 mm^3

Second part, led by results:

IC50 [1]: 21.7 nM
Structure (SMILES): COC[C@@H]1CCN1C/C=C/C(=O)Nc1cc2c(Nc3ccc(F)c(Cl)c3)ncnc2cc1OCC1CC1 [Example 10, (S,E)-N-(4-(3-chloro-4-fluorophenylamino)-7-(cyclopropylmethoxy)quinazolin-6-yl)-4-(2-(methoxymethyl)azetidin-1-yl)but-2-enamide]

IC50 [1]: 3.9 nM
Structure (SMILES): O=C(/C=C/CN1CCC1CO)Nc1cc2c(Nc3ccc(F)c(Cl)c3)ncnc2cc1O[C@H]1CCOC1 (stereo partly drawn) [Example 11, (E)-N-(4-(3-chloro-4-fluorophenylamino)-7-((S)-tetrahydrofuran-3-yloxy)quinazolin-6-yl)-4-(2-(hydroxymethyl)azetidin-1-yl)but-2-enamide]
IC50 [2]: 9.6 nM

IC50 [1]: 2.9 nM
Structure (SMILES): COCC1CCN1C/C=C/C(=O)Nc1cc2c(Nc3ccc(F)c(Cl)c3)ncnc2cc1O[C@H]1CCOC1 (stereo partly drawn) [Example 12, (E)-N-(4-(3-chloro-4-fluorophenylamino)-7-((S)-tetrahydrofuran-3-yloxy)quinazolin-6-yl)-4-(2-(methoxymethyl)azetidin-1-yl)but-2-enamide]
IC50 [2]: 1.5 nM

IC50 [1]: 2.7 nM
Structure (SMILES): O=C(/C=C/CN1CCC1CO)Nc1cc2c(Nc3ccc(F)c(Cl)c3)ncnc2cc1OC[C@H]1COCCO1 (stereo partly drawn) [Example 13, (E)-N-(7-(((R)-1,4-dioxan-2-yl)methoxy)-4-(3-chloro-4-fluorophenylamino)quinazolin-6-yl)-4-(2-(hydroxymethyl)azetidin-1-yl)but-2-enamide]
IC50 [2]: 13.5 nM

IC50 [1]: 2.9 nM
Structure (SMILES): COC[C@H]1CCN1C/C=C/C(=O)Nc1cc2c(Nc3ccc(F)c(Cl)c3)ncnc2cc1OC[C@H]1COCCO1 [Example 14, (E)-N-(7-(((R)-1,4-dioxan-2-yl)methoxy)-4-(3-chloro-4-fluorophenylamino)quinazolin-6-yl)-4-((R)-2-(methoxymethyl)azetidin-1-yl)but-2-enamide]

IC50 [1]: 25 nM
Structure (SMILES): COC[C@@H]1CCN1C/C=C/C(=O)Nc1cc2c(Nc3ccc(F)c(Cl)c3)ncnc2cc1OC[C@H]1COCCO1 [Example 15, (E)-N-(7-(((R)-1,4-dioxan-2-yl)methoxy)-4-(3-chloro-4-fluorophenylamino)quinazolin-6-yl)-4-((S)-2-(methoxymethyl)azetidin-1-yl)but-2-enamide]

IC50 [1]: 17.5 nM
Structure (SMILES): O=C(/C=C/CN1CCC1CO)Nc1cc2c(Nc3ccc(F)c(Cl)c3)ncnc2cc1OC[C@@H]1COCCO1 (stereo partly drawn) [Example 16, (E)-N-(7-(((S)-1,4-dioxan-2-yl)methoxy)-4-(3-chloro-4-fluorophenylamino)quinazolin-6-yl)-4-(2-(hydroxymethyl)azetidin-1-yl)but-2-enamide]
IC50 [2]: 39.5 nM

IC50 [1]: 10.8 nM
Structure (SMILES): O=C(/C=C/CN1CCC1CO)Nc1cc2c(Nc3ccc(F)c(Cl)c3)ncnc2cc1OC[C@H]1[C@@H]2COC[C@@H]21 (stereo partly drawn) [Example 18, (E)-N-(7-((1R,5S,6r)-3-oxabicyclo[3.1.0]hexan-6-ylmethoxy)-4-(3-chloro-4-fluorophenylamino)quinazolin-6-yl)-4-(2-(hydroxymethyl)azetidin-1-yl)but-2-enamide]
IC50 [2]: 11.2 nM

IC50 [1]: 22.2 nM
Structure (SMILES): COC[C@@H]1CCN1C/C=C/C(=O)Nc1cc2c(Nc3ccc(F)c(Cl)c3)ncnc2cc1OC[C@H]1[C@@H]2COC[C@@H]21 [Example 20, (E)-N-(7-((1R,5S,6r)-3-oxabicyclo[3.1.0]hexan-6-ylmethoxy)-4-(3-chloro-4-fluorophenylamino)quinazolin-6-yl)-4-((S)-2-(methoxymethyl)azetidin-1-yl)but-2-enamide]
